Data taken from patent US6767890B1, “Peptides having anti-cancer and anti-inflammatory activity” (priority 1998, dated 2004).

System: TNF-α
Experiment: TNF-α radioligand binding
Set-up: species or system human
Conditions: 10.0 μM; specific binding of [125I]TNF-alpha; negative = stimulation
Experimental: The peptide was further screened in vitro in a variety of enzyme and biochemical assays. Methods employed were adapted from the scientific literature to maximize reliability and reproducibility.
Results presented in Table 10, “Results,” are the average of duplicate determinations, unless otherwise noted.
Radioligand binding assays were performed under conditions described in Table 8, “Experimental Conditions.” Radioligands employed in this study are given in Table 8, and commercial sources and catalog numbers of the radioligands are provided in Table 7, “Material Sources.” Unlabeled, blocking ligands employed this study are listed in Table 8, “Experimenal Conditions,” along with the commercial sources and catalog number of the unlabeled ligand. The concurrent reference compound (control) employed in each assay is listed in Table 9, “Reference Compound Data,” along with the commercial supplier and catalog number of the compound. Where receptors have been obtained through recombinant expression techniques, the species from which the cDNA was obtained, and the type of expression system employed (mammalian, insect, bacterial) is also given Table 7.
Maximum total binding and nonspecific binding were determined each time each assay was run. Nonspecific binding was defined as the proportion of total binding not displaced by unlabeled ligand specific for the receptor. […]

Substance: LEU-PRO-PRO-SER-ARG [Peptide]
- % Inhibition: −11%
